Results on 8 molecules are retold here after ChEMBL document CHEMBL3425426, “Discovery of DS-1558: A Potent and Orally Bioavailable GPR40 Agonist” (ACS Med Chem Lett, 2015).

In data set [1] the test system is Liver microsome. The data set can be described thus: Drug metabolism in human liver microsomes assessed as 2-methylbenzaldehyde formation at 500 uM incubated for 1 hr in presence of GSH and NADPH and by LC-MS/MS based GSH trapping assay. The class given is ADME. In general terms: Microsomes from liver hold many membrane-bound enzymes, among them those of drug oxidation.

Data set [2] deals with Free fatty acid receptor 1 (Homo sapiens, UniProt O14842). The data set can be described thus: Agonist activity at human GPR40 expressed in CHO cells assessed as calcium flux by FLIPR assay. The class given is functional, cell-based.
Free fatty acid receptor 1, sequence (O14842 whole entry): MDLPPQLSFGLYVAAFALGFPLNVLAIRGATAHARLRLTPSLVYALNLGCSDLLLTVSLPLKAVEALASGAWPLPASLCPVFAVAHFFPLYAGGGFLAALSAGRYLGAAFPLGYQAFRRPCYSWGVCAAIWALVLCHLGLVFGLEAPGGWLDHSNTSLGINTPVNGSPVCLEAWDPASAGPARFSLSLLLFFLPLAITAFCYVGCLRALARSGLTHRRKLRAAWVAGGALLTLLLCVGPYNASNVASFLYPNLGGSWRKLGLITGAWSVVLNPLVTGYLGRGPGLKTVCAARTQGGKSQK

Consider `CCOC(CC(=O)O)c1ccc(OCc2ccccc2C)cc1` (racemic), for which the Drug metabolism result in data set [1] is “metabolite_detected”. Usually EC50 stands for the concentration that produces a half-maximal response. Turning to `CCO[C@@H](CC(=O)O)c1ccc(OCc2ccc(Cl)c(Cl)c2)cc1`, the EC50 in data set [2] amounted to 3.9 nM.

For the molecule `CCOC(CC(=O)O)c1ccc(OCc2ccc(Cl)c(Cl)c2)cc1` (racemic), the EC50 in data set [2] came to 6.2 nM. As to `CCO[C@@H](CC(=O)O)c1ccc(O[C@@H]2CCCc3ccccc32)cc1`, in data set [2], the EC50 amounted to 62 nM. As for `CCO[C@@H](CC(=O)O)c1ccc(OC2Cc3ccccc3C2)cc1`, the half-maximal effective concentration (EC50) in data set [2] is 83 nM. On to `CCO[C@@H](CC(=O)O)c1ccc(O[C@H]2CCc3ccccc32)cc1`, for which the EC50 in data set [2] worked out at 69 nM. Consider `CCOc1cccc2c1CC[C@H]2Oc1ccc([C@H](CC(=O)O)OCC)cc1`, for which, in data set [2], the EC50 is 63 nM. For the molecule `CCO[C@H](CC(=O)O)c1ccc(OCc2ccc(Cl)c(Cl)c2)cc1`, the half-maximal effective concentration (EC50) in data set [2] worked out at 360 nM.
